Test results: patent publication US20220305090A1, “HAIR GROWING AGENT AND FOOD OR BEVERAGE PRODUCT COMPRISING SAME” (NITTA GELATIN INC., priority 2019, published 2022)

Legend:
[1] = system: human normal hair papilla cells HFDPC-C; experiment: Cell growth test on hair papilla cells (neutral red method, living cell number vs purified water control); format: cell-based; details: for Hair papilla cell growth promoting action (in words): conclusion from Tables 1, 2 and 4; for Growth rate control = 100: 72 hours culture
Procedure: First, human normal hair papilla cells HFDPC-C (manufactured by Takara Bio Inc.) were obtained, and the hair papilla cells were then seeded at 0.2×10^4/dish in each well of a 96-well plate for cell culture (manufactured by Corning Inc.). Further, 200 μL of a basal medium (trade name: “Follicle Dermal Papilla Cell Basal Medium”, manufactured by Takara Bio Inc.) containing a growth factor accompanying the obtained hair papilla cells was supplied to each well, and the hair papilla cells were precultured in each well at 37° C. for 24 hours.
Next, the hair papilla cells were confirmed to be subconfluent, and the basal medium in each well was then replaced by 200 μL of another basal medium (trade name: “Follicle Dermal Papilla Cell Basal Medium”, manufactured by Takara Bio Inc.) free of the growth factor described above. In this way, hair papilla cells to be used for determining whether or not addition of the above-described samples promote cell growth were prepared.
To the hair papilla cells prepared as described above, amino acids, combinations of amino acids, peptides and collagen peptide mixtures which are the samples described above were added at final concentrations shown in Tables 1 and 2, and the hair papilla cells were cultured in each well at 37° C. for 72 hours. Here, to one of the wells containing the hair papilla cells prepared as described above, 20 μL, of purified water was added, and as with other hair papilla cells, culturing was performed at 37° C. for 72 hours to prepare a control test sample (control). Thereafter, for each of the hair papilla cells in the wells containing purified water or the samples, the number of living cells (living cell number) was counted by a neutral red method. Here, the “neutral red method” is a method in which neutral red is added at a final concentration of 150 μg/mL into a well where cells are cultured, the cells are cultured for 20 minutes, and washed with PBS (phosphate buffer physiological saline), 200 μL of a 50 mass % ethanol solution containing 1 mass % acetic acid is added into the well as an extraction liquid, the mixture is stirred, and the absorbance of the well containing the neutral red is measured at a wavelength of 540 nm to measure the number of living cells in the well.
The number of living cells of hair papilla cells in the well containing the sample with respect to the number of living cells of hair pallia cells in the well containing purified water (control test sample) was determined as a cell growth rate (%) to evaluate the hair papilla cell growth promoting action in the sample. Further, the cell growth rate (%) was subjected to statistical processing to evaluate significance of the hair papilla cell growth promoting action in the sample. […] Thereafter, the Student's t-test (t-test) was conducted to evaluate significance. […] In Tables 1 and 2, samples with “++” were determined to have a significance in the hair papilla cell growth promoting action. In samples with “+”, the cell growth rate (%) exceeded 100.

[2] = system: hairless mice; experiment: Test for confirming hair development effect and hair growth effect using hairless mouse (visual amount of head hair); format: in vivo
From the text: Thirty 8-week-old male and female hairless mice were provided by purchase from Hoshino Laboratory Animals, Inc. The hairless mice were divided into five groups each consisting of six mice with no regard to sex. Specifically, the plurality of groups consist of a normal group given a normal feed (trade name: “Labo MR Stock”, manufactured by Nosan Corporation), a control group given magnesium-deficient specialty feed (trade name: “HR-AD Feed”, manufactured by Nosan Corporation), a first group given a mixed feed obtained by adding Pro-Hyp at a content of 0.3 mass % to the magnesium-deficient specialty feed, a second group given a mixed feed obtained by adding the collagen peptide mixture A at a content of 5 mass % to the magnesium-deficient specialty feed, and a third group given a mixed feed obtained by adding a collagen peptide mixture C of the later-described composition at a content of 2.5 mass % to the magnesium-deficient specialty feed.
The heads of the hairless mice in the above-described groups were observed immediately after they were reared for 3 weeks to 11 weeks of age under the following conditions: the temperature was 23±2° C., the relative humidity was 55±10%, the lighting cycle was 12 hours, the light period started at 7:00 and ended at 19:00, and the mice were allowed to freely eat. […] At the time of obtaining the hairless mice, their heads had no hair.
Further, a 2-week-old hairless mouse before starting to lose its hair was obtained from Hoshino Laboratory Animals, Inc., and relative to the amount of head hair of the hairless mouse which is defined as 10, the amount of head hair of each of the 11-week-old hairless mice in each group was visually measured. […] Each of the values in the table represents an average of the amounts of head hair of the six hairless mice in each group.

[3] = final concentration 0.05 mM, Table 1
[4] = final concentration 0.5 mM, Table 1
[5] = final concentration 5 mM, Table 1
[6] = final concentration 0.05 mM, Table 4 (control test)
[7] = final concentration 0.5 mM, Table 4 (control test)
[8] = final concentration 5 mM, Table 4 (control test)

Row | Compound | Hair papilla cell growth promoting action (in words) [1] | Growth rate control = 100 ([1]; final concentration 0.05 mM) [%] | Assessment [1, 3] | Growth rate control = 100 ([1]; final concentration 0.5 mM) [%] | Assessment [1, 4] | Growth rate control = 100 ([1]; final concentration 5 mM) [%] | Assessment [1, 5] | Assessment [1, 6] | Assessment [1, 7] | Assessment [1, 8] | Score (amount of head hair, 2-week-old hairless mouse = 10) ([2]; First group: 0.3 mass % in magnesium-deficient specialty feed, 3 weeks, 11-week-old hairless mice, average of six) | Effectiveness as hair growing agent (in words) ([2]; conclusion from Table 3) | Hair development in the hair of head (FIG. 2 vs FIG. 1) ([2]; mixed feed with 0.3 mass % Pro-Hyp, 11-week-old hairless mice, compared with control group)
1 | leucine-hydroxyproline [LO] | had a hair papilla cell growth promoting action | 104 ± 6 | + (In samples with “+”, the cell growth rate (%) exceeded 100) | 105 ± 2 | + (In samples with “+”, the cell growth rate (%) exceeded 100) | 104 ± 5 | + (In samples with “+”, the cell growth rate (%) exceeded 100) |  |  |  |  |  | 
2 | NC(=O)CC[C@H](N)C(=O)O [Gln, glutamine, reference compound] | poor hair papilla cell growth promoting action | 92 ± 2 |  | 94 ± 5 |  | 100 ± 4 |  | − | − | − |  |  | 
3 | serine-hydroxyproline-glycine [SOG] | had a hair papilla cell growth promoting action | 113 ± 10 | + (In samples with “+”, the cell growth rate (%) exceeded 100) | 116 ± 3 | ++ | 109 ± 2 | + (In samples with “+”, the cell growth rate (%) exceeded 100) |  |  |  |  |  | 
4 | O=C(O)[C@@H]1C[C@@H](O)CN1 [O, hydroxyproline] | had a hair papilla cell growth promoting action | 114 ± 1 | ++ | 114 ± 3 | ++ | 110 ± 5 | ++ |  |  |  |  |  | 
5 | NCC(=O)O.O=C(O)[C@@H]1CCCN1 [GP, glycine-proline] | had a hair papilla cell growth promoting action | 105 ± 4 | + (In samples with “+”, the cell growth rate (%) exceeded 100) | 109 ± 2 | ++ | 114 ± 2 | ++ |  |  |  |  |  | 
6 | phenylalanine-hydroxyproline [FO] | had a hair papilla cell growth promoting action | 104 ± 4 | + (In samples with “+”, the cell growth rate (%) exceeded 100) | 106 ± 2 | + (In samples with “+”, the cell growth rate (%) exceeded 100) | 104 ± 1 | ++ |  |  |  |  |  | 
7 | proline-alanine-glycine [PAG] | had a hair papilla cell growth promoting action | 110 ± 4 | + (In samples with “+”, the cell growth rate (%) exceeded 100) | 113 ± 1 | ++ | 115 ± 4 | ++ |  |  |  |  |  | 
8 | O=C(O)[C@@H]1CCCN1 [Pro, proline, reference compound] | poor hair papilla cell growth promoting action | 91 ± 4 |  | 93 ± 5 |  | 96 ± 1 |  | − | − | − |  |  | 
9 | NCC(=O)O.O=C(O)[C@@H]1CCCN1 [PG, proline-glycine] | had a hair papilla cell growth promoting action | 120 ± 5 | ++ | 120 ± 1 | ++ | 120 ± 5 | ++ |  |  |  |  |  | 
10 | C[C@H](N)C(=O)O [Ala, alanine, reference compound] | poor hair papilla cell growth promoting action | 94 ± 1 |  | 100 ± 8 |  | 95 ± 1 |  | − | − | − |  |  | 
11 | N=C(N)NCCC[C@H](N)C(=O)O [Arg, arginine, reference compound] | poor hair papilla cell growth promoting action | 93 ± 6 |  | 98 ± 3 |  | 101 ± 2 |  | − | − | − |  |  | 
12 | glutamic acid-hydroxyproline [EO] | had a hair papilla cell growth promoting action | 102 ± 6 | + (In samples with “+”, the cell growth rate (%) exceeded 100) | 109 ± 4 | + (In samples with “+”, the cell growth rate (%) exceeded 100) |  |  |  |  |  |  |  | 
13 | proline-alanine [PA] | had a hair papilla cell growth promoting action | 105 ± 2 | + (In samples with “+”, the cell growth rate (%) exceeded 100) | 111 ± 1 | + (In samples with “+”, the cell growth rate (%) exceeded 100) | 107 ± 5 | + (In samples with “+”, the cell growth rate (%) exceeded 100) |  |  |  |  |  | 
14 | proline-proline [PP] | had a hair papilla cell growth promoting action | 116 ± 3 | ++ | 113 ± 6 | ++ | 109 ± 2 | ++ |  |  |  |  |  | 
15 | glutamic acid-hydroxyproline-glycine [EOG] | had a hair papilla cell growth promoting action | 126 ± 10 | ++ | 131 ± 1 | ++ | 121 ± 8 | ++ |  |  |  |  |  | 
16 | alanine-hydroxyproline-glycine [AOG] | had a hair papilla cell growth promoting action | 127 ± 5 | ++ | 126 ± 2 | ++ | 119 ± 2 | ++ |  |  |  |  |  | 
17 | proline-hydroxyproline [PO] | had a hair papilla cell growth promoting action | 126 ± 8 | ++ | 127 ± 3 | ++ | 129 ± 6 | ++ |  |  |  | 8 | effective as hair growing agents | hair development occurred in the hair of head
18 | glycine-proline-hydroxyproline [GPO] | had a hair papilla cell growth promoting action | 126 ± 3 | ++ | 125 ± 4 | ++ | 120 ± 4 | ++ |  |  |  |  |  | 
